# From ChEMBL document CHEMBL1140014, “Synthesis and evaluation of pyrazolo[3,4-b]pyridine CDK1 inhibitors as anti-tumor agents” (Bioorg Med Chem Lett, 2007)
# How the values were obtained:
# [1] = Inhibition of Aurora2; parameters: species or system Homo sapiens
# [2] = target: Vascular endothelial growth factor receptor 2 (Homo sapiens, UniProt P35968); experiment: Inhibition of VEGFR2
# [3] = Solubility in 20% hydroxyl propyl beta-cyclodextrin; assay type: physicochemical; conditions: 20% hydroxypropyl beta-cyclodextrin solution
# A-375 = experiment: cells; conditions: Homo sapiens
# HCT-116 = experiment: cells; conditions: Homo sapiens
# HeLa = experiment: cells; conditions: Homo sapiens
# [4] = Oral bioavailability in rat at 10 mg/kg; assay type: ADME, organism-based; conditions: in vivo
# [5] = Half life in rat at 2 mg/kg, iv; assay type: ADME, organism-based; parameters: dose 2 mg/kg, route intravenous; conditions: in vivo
# [6] = Cmax in rat at 2 mg/kg, iv; assay type: ADME, organism-based; parameters: dose 2 mg/kg, route intravenous; conditions: in vivo
# [7] = AUC in rat at 10 mg/kg, po; assay type: ADME, organism-based; parameters: dose 10 mg/kg, route oral; conditions: plasma
# [8] = Half life in rat at 10 mg/kg, po; assay type: ADME, organism-based; parameters: dose 10 mg/kg, route oral; conditions: in vivo
# Rattus norvegicus = experiment: (§1) AUC in rat at 2 mg/kg, iv; assay type: ADME, organism-based, Plasma; parameters: dose 2 mg/kg, route intravenous; conditions: in vivo
# [9] = Cmax in rat at 10 mg/kg, po; assay type: ADME, organism-based; parameters: dose 10 mg/kg, route oral; conditions: in vivo
# [10] = target: Receptor tyrosine-protein kinase erbB-2 (Homo sapiens, UniProt P04626); experiment: Inhibition of HER2
# Receptor tyrosine-protein kinase erbB-2, sequence (P04626 whole entry): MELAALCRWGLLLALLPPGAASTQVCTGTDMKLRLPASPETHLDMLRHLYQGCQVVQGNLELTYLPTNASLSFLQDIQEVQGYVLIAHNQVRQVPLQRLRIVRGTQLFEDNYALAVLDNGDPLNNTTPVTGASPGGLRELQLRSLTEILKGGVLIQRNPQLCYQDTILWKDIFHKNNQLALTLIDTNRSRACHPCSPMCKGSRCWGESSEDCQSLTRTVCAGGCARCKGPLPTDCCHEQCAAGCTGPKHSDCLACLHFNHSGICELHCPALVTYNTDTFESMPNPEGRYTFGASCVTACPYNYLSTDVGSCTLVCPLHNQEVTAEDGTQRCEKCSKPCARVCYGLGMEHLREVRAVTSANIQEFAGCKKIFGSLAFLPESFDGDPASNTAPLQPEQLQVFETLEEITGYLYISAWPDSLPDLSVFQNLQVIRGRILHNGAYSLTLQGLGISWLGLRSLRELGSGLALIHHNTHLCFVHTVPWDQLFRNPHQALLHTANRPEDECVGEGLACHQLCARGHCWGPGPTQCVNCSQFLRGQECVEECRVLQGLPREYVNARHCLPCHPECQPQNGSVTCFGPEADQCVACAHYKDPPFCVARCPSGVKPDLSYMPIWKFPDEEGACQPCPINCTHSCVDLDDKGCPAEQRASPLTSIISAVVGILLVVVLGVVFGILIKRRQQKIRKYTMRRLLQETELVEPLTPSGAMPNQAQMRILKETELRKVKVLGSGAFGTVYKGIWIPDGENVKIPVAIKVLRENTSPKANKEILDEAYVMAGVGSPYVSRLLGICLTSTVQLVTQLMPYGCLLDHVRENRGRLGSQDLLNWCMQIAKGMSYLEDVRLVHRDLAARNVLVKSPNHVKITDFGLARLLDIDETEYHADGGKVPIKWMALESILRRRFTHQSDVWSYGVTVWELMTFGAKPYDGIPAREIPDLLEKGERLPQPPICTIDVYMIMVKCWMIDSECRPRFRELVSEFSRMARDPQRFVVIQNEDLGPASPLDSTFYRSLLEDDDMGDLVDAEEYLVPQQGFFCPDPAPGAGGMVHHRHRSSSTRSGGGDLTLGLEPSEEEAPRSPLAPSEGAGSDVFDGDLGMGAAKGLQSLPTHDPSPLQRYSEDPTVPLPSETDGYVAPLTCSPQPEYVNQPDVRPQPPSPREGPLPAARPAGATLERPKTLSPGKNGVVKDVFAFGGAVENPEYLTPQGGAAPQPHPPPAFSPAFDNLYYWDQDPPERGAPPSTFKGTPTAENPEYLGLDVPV
# [11] = target: Proto-oncogene tyrosine-protein kinase receptor Ret (Homo sapiens, UniProt P07949); experiment: Inhibition of RET
# Proto-oncogene tyrosine-protein kinase receptor Ret, sequence (P07949 whole entry): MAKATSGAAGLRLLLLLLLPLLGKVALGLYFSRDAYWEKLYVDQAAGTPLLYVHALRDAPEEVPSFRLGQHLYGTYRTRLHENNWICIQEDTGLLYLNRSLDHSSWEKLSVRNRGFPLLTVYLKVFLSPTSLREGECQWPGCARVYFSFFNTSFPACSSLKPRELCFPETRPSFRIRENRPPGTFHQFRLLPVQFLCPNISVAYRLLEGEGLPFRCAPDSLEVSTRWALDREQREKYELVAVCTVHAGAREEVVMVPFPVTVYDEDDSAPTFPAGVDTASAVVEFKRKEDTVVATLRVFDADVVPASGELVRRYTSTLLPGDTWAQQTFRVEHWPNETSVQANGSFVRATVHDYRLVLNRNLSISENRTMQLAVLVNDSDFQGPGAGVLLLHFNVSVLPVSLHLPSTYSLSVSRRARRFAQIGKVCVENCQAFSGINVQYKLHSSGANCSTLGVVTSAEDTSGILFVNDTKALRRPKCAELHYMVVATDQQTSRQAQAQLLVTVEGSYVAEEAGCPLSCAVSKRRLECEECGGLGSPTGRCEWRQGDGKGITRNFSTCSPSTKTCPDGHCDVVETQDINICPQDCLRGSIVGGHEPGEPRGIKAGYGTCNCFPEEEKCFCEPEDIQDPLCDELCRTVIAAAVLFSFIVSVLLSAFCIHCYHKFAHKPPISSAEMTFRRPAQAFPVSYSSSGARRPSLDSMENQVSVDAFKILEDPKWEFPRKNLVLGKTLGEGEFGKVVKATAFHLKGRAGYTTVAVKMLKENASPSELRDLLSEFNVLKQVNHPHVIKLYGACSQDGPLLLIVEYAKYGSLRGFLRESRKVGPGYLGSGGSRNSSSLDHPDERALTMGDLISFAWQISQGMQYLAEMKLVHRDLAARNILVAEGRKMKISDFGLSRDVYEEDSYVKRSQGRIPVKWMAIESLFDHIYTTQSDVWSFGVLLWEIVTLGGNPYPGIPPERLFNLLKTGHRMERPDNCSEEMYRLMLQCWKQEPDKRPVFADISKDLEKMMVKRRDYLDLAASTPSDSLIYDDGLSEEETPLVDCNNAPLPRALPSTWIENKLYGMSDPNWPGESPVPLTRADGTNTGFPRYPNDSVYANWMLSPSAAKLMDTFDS
# [12] = target: Cyclin-dependent kinase 1 (Homo sapiens, UniProt P06493); experiment: Inhibition of CDK1
# Cyclin-dependent kinase 1, sequence (P06493 whole entry): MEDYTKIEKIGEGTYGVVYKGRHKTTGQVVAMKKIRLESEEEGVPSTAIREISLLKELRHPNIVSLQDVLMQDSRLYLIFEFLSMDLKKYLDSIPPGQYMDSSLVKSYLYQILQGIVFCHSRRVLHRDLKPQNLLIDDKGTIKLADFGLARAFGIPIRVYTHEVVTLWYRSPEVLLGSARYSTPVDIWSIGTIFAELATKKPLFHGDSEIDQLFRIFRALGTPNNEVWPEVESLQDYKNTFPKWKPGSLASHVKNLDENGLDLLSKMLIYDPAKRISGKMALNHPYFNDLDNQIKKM
# [13] = Clearance in rat at 2 mg/kg, iv; assay type: ADME, organism-based; parameters: dose 2 mg/kg, route intravenous; conditions: in vivo
# [14] = as §1; assay type: ADME, organism-based, Plasma; parameters: dose 2 mg/kg, route intravenous; conditions: plasma
# Vascular endothelial growth factor receptor 2, sequence (P35968 whole entry): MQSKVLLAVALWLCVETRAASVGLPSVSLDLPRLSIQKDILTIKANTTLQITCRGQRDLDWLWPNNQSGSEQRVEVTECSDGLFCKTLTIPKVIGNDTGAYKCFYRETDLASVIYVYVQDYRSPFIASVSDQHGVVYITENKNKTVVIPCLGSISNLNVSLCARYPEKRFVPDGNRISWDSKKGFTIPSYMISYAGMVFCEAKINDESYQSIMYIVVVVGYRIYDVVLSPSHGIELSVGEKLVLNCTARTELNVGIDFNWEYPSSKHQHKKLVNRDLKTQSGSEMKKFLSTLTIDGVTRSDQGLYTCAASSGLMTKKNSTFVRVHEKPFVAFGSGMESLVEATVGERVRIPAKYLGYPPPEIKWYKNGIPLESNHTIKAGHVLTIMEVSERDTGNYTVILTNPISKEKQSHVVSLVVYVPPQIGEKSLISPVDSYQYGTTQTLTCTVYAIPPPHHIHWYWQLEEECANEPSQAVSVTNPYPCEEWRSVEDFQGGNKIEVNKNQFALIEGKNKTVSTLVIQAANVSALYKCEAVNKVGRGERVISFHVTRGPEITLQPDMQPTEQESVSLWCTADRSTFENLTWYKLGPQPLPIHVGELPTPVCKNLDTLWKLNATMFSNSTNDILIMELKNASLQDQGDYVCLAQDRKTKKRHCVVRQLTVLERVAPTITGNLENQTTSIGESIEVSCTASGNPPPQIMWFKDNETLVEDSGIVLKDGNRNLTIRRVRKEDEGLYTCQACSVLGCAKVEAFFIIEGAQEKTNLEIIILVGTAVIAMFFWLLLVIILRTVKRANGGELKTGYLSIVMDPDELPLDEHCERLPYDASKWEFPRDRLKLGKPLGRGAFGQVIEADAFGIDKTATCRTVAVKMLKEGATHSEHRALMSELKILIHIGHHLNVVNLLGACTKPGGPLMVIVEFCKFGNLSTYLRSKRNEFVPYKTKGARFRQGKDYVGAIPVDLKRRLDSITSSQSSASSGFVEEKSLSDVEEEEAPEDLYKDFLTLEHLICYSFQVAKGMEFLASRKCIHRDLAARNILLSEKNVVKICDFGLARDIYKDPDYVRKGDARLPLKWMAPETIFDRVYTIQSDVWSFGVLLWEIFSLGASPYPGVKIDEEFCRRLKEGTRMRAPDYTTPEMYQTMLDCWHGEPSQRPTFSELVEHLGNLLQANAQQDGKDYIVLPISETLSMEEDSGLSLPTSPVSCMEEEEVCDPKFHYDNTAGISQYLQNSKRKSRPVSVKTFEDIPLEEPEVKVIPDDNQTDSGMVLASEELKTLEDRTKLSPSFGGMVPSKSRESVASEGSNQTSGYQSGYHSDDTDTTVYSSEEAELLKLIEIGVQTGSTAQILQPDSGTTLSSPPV
IC50 [1] [nM],IC50 [2] [nM],IC50 (A-375) [nM],IC50 (HCT-116) [nM],IC50 (HeLa) [nM],IC50 [12] [nM],SMILES,also measured
> 1000,100,46,95,140,–,CCNCc1cncc(-c2cnc3[nH]nc(-c4nc5cc(F)c(F)cc5[nH]4)c3c2)c1,solubility [3]: 12.5 mg/mL
800,150,51,94,59,–,CCNCc1cncc(-c2cnc3n[nH]c(-c4nc5ccc(F)cc5[nH]4)c3c2)c1,solubility [3]: 12.5 mg/mL; bioavailability [4]: 8%; half-life [5]: 16.1 h; Cmax [6]: 217 ng/mL; AUC [7]: 150 ng·h/mL; half-life [8]: 31.3 h; AUC (Rattus norvegicus): 372 ng·h/mL; Cmax [9]: 3.8 ng/mL
> 10000,> 100000,–,890,1760,–,OCc1cccc2[nH]c(-c3n[nH]c4ncc(-c5cncc6ccccc56)cc34)nc12,IC50 [10]: 240 nM
320,460,10,10,15,–,COCc1cccc2[nH]c(-c3n[nH]c4ncc(-c5cncc6ccccc56)cc34)nc12,–
> 1000,100,910,2880,2140,–,CC(C)OCc1cccc2[nH]c(-c3n[nH]c4ncc(-c5cncc6ccccc56)cc34)nc12,–
> 100000,> 100000,11,–,1460,–,COCc1cccc2[nH]c(-c3n[nH]c4ncc(-c5cnc6ccccc6c5)cc34)nc12,IC50 [10]: > 100000 nM; IC50 [11]: > 100000 nM
> 1000,110,23,62,3090,–,COCc1cccc2[nH]c(-c3n[nH]c4ncc(-c5ccncc5)cc34)nc12,–
10000,110,160,330,9910,–,COCc1cccc2[nH]c(-c3n[nH]c4ncc(-c5cncnc5)cc34)nc12,–
–,1550,47,31,29,1.8,CCN(CC)Cc1cccc2[nH]c(-c3n[nH]c4ncc(-c5cncc6ccccc56)cc34)nc12,IC50 [10]: 89 nM
–,–,160,360,450,14,CN1CCN(c2ccc3[nH]c(-c4n[nH]c5ncc(-c6cncc7ccccc67)cc45)nc3c2)CC1,clearance [13]: 34.9 mL/min/kg; bioavailability [4]: 4%; half-life [5]: 0.73 h; Cmax [6]: 1000 ng/mL; AUC [7]: 173 ng·h/mL; half-life [8]: 3.3 h; AUC [14]: 959 ng·h/mL; Cmax [9]: 65 ng/mL
41,1070,300,370,400,–,c1ccc2c(-c3cnc4[nH]nc(-c5nc6cc(N7CCOCC7)ccc6[nH]5)c4c3)cncc2c1,–
> 10000,> 10000,> 10000,> 10000,> 10000,–,O=C(O)c1cccc2[nH]c(-c3n[nH]c4ncc(-c5cncc6ccccc56)cc34)nc12,–
> 100,380,65,42,35,39,CC(C)NC(=O)c1cccc2[nH]c(-c3n[nH]c4ncc(-c5cncc6ccccc56)cc34)nc12,–
3750,1600,330,190,1230,120,COCc1cccc2[nH]c(-c3n[nH]c4ncc(-c5cncc(CN(C)C)c5)cc34)nc12,–
8020,4670,–,–,–,110,CCNCc1cncc(-c2cnc3[nH]nc(-c4nc5c(COC)cccc5[nH]4)c3c2)c1C,–
1000,10000,71,55,170,–,CCN(CC)C(=O)c1cccc2[nH]c(-c3n[nH]c4ncc(-c5cncc6ccccc56)cc34)nc12,IC50 [10]: > 10000 nM
100000,> 100000,260,200,1170,120,COCc1cccc2[nH]c(-c3nn(C)c4ncc(-c5cncc6ccccc56)cc34)nc12,–
–,–,870,550,1700,23,c1ccc2c(-c3cnc4[nH]nc(-c5nc6ccccc6[nH]5)c4c3)cncc2c1,–
–,100000,7380,–,10500,10000,COC(=O)c1cccc2[nH]c(-c3n[nH]c4ncc(-c5cncc6ccccc56)cc34)nc12,–
3990,–,–,–,–,–,CCCNCc1cncc(-c2cnc3[nH]nc(-c4nc5c(COC)cccc5[nH]4)c3c2)c1,solubility [3]: 12.5 mg/mL
280,25,630,540,470,3,CCNCc1cncc(-c2cnc3[nH]nc(-c4nc5cc(N6CCN(C)CC6)ccc5[nH]4)c3c2)c1,solubility [3]: 12.5 mg/mL
> 1000,640,270,310,460,2.5,CNCc1cncc(-c2cnc3[nH]nc(-c4nc5c(COC)cccc5[nH]4)c3c2)c1,IC50 [11]: 1000 nM
–,10000,1720,1640,3090,–,Cc1cccc2[nH]c(-c3n[nH]c4ncc(-c5cncc6ccccc56)cc34)nc12,IC50 [10]: 1000 nM
> 1000,160,33,19,650,29,COCc1cccc2[nH]c(-c3n[nH]c4ncc(-c5cccnc5)cc34)nc12,–
1000,> 100,47,55,–,9,CNCc1cncc(-c2cnc3[nH]nc(-c4nc5cc(OC(F)(F)F)ccc5[nH]4)c3c2)c1,solubility [3]: 12.5 mg/mL
3620,1000,140,110,130,13,CC(C)NCc1cccc2[nH]c(-c3n[nH]c4ncc(-c5cncc6ccccc56)cc34)nc12,–
360,> 100,100,49,32,–,CCNCc1cncc(-c2cnc3[nH]nc(-c4nc5cc(OC)ccc5[nH]4)c3c2)c1,solubility [3]: 12.5 mg/mL; IC50 [11]: 1000 nM
